In article PMC11267568 (2024):

Key:
Test in all cases: in-line probing
[1] = system: r10-1 (RNA, aptamer) GGACCUCGAGGCUACCGCGGCUGGCUCUCGGACGACUAUGCCUCGCGUGGAUAUGGCACGCGUAGAAGGGCACCGUAAAUGUCCUACUUGCGGUAGUCAUCCCGAUGGA; details: 10 mM MgCl2, 50 mM KCl (1x of 2x buffer); 25 mM Tris-HCl pH 8.3 (1x), room temperature, ~48 h
[2] = system: r10-1G (RNA, aptamer) GGCUGGCUUCGGCCUCGCGUGGAUAUGGCACGCGUAGAAGGGCACCGUAAAUGUCCUACUU; details: 10 mM MgCl2, 50 mM KCl (1x of 2x buffer); 25 mM Tris-HCl pH 8.3 (1x), room temperature, ~48 h
[3] = system: 11-19 (RNA, aptamer) GGCUACCGCCGCUGGGCUCUCGGGACGACACUGAGGGAACGCGUGGAUAUGGCACGCAACAGCGGGCACCGUAAAUGUCCUGGCGGUAGUCGACCCGAUGGACACUGUCGGCGUAG; details: 10 mM MgCl2, 50 mM KCl (1x of 2x buffer); 0.1 to 10 μM branaplam
[4] = system: 11-19A (RNA, aptamer) GGCUACCGCCGCUGGGCUCUCGGGACGACACUGAGGGAACGCGUGGAUAUGGCACGCAACAGCGGGCACCGUAAAUGUCCUGGCGGUAGUC; details: 10 mM MgCl2, 50 mM KCl (1x of 2x buffer); 25 mM Tris-HCl pH 8.3 (1x), room temperature, ~48 h
[5] = system: r10-1C (RNA, aptamer) GGCUACCGCGGCUGGCUUCGGCCUCGCGUGGAUAUGGCACGCGUAGAAGGGCACCGUAAAUGUCCUACUUGCGGUAGUC; details: 10 mM MgCl2, 50 mM KCl (1x of 2x buffer); 25 mM Tris-HCl pH 8.3 (1x), room temperature, ~48 h
[6] = system: t14-4 (RNA, aptamer) GGCUGAUCUCCCAUCGGUAUGCCCUUCUGUGUGAAGGCGGUACUAAUGCCGGAGUGUAGAAACUGGAUAAUGCCAGUUAGUGGUAUGGAGAUACUACGACGCACGC; details: 10 mM MgCl2, 50 mM KCl (1x of 2x buffer); 25 mM Tris-HCl pH 8.3 (1x), room temperature, ~48 h
[7] = system: r10-3 (RNA, aptamer) GGACCUCGAGGCUACCGCGGCUGGCUCUCGGACGACUGUGCCUCGCGUGGAUAUGGCACGCGUAGAAGGACACCGUAAAUGUCCUACUUGCGGUAGUCAUCCCGAUGGA; details: 10 mM MgCl2, 50 mM KCl (1x of 2x buffer); 25 mM Tris-HCl pH 8.3 (1x), room temperature, ~48 h
[8] = system: r10-1H (RNA, aptamer) GGCCUCGCGUGGAUAUGGCACGCGUAGAAGGGCACCGUAAAUGUCCUACUU; details: 10 mM MgCl2, 50 mM KCl (1x of 2x buffer); 25 mM Tris-HCl pH 8.3 (1x), room temperature, ~48 h
[9] = system: r10-2 (RNA, aptamer) GGACCUCGAGGCUACCGCAGCUGGCUCUCGGACGACUAUGCCUCGCGUGGAUAUGGCACGCGUAGAAGGGCACCGUAAAUGUCCUACUUGCGGUAGUCAUCCCGAUGGA; details: 10 mM MgCl2, 50 mM KCl (1x of 2x buffer); 25 mM Tris-HCl pH 8.3 (1x), room temperature, ~48 h
[10] = system: r10-4 (RNA, aptamer) GGACCUCGAGGCUACCGCGGCUGGCUCUCGGACGACUAUGCCUCGCGUGGAUAUGGCACGCGUAGAAGGGCACCGUAAAUGCCCUACUUGCGGUAGUCAUCCCGAUGGA; details: 10 mM MgCl2, 50 mM KCl (1x of 2x buffer); 25 mM Tris-HCl pH 8.3 (1x), room temperature, ~48 h
[11] = system: r10-1C-M1 (RNA, aptamer) GGCUACCGCGGCUGGCUUCGGCCUCGCGUGGAUAUAACACGCGUAGAAGGGCACCGUAAAUGUCCUACUUGCGGUAGUC; details: 10 mM MgCl2, 50 mM KCl (1x of 2x buffer); up to 10 μM branaplam; 25 mM Tris-HCl pH 8.3, room temperature
[12] = system: 11-1 (RNA, aptamer) GGCUACCGCCGCUGGCUCUCGGGCGACUGUGCCUCGCGUGGAUAUGGCACGCGUAGAAGGGCACCGUAAAUGUCCUACUUGCGGUAGUCAUCCCGAUGGACACUGUCGGCGUAG; details: 10 mM MgCl2, 50 mM KCl (1x of 2x buffer); 25 mM Tris-HCl pH 8.3 (1x), room temperature, ~48 h
[13] = system: r10-1N (RNA, aptamer) GGCCUCGCGUGGAUAUGGCACGCGUAGAAGGGCACCGUAAAUGUCCUA; details: 10 mM MgCl2, 50 mM KCl (1x of 2x buffer); 25 mM Tris-HCl pH 8.3 (1x), room temperature, ~48 h
[14] = system: 11-1B (RNA, aptamer) GGCUACCGCCGCUGGCUCUCGGGCGACUGUGCCUCGCGUGGAUAUGGCACGCGUAGAAGGGCACCGUAAAUGUCCUACUUGCGGUAGUC; details: 10 mM MgCl2, 50 mM KCl (1x of 2x buffer); 25 mM Tris-HCl pH 8.3 (1x), room temperature, ~48 h

KD [1]: 420 ± 41 nM | KD [2]: 352 ± 21 nM | binding [3]: yes | KD [4]: 846 ± 127 nM | KD [5]: 400 ± 43 nM | KD [6]: 2270 ± 150 nM | KD [7]: 964 ± 382 nM | KD [8]: 311 ± 19 nM | KD [9]: 623 ± 55 nM | KD [10]: 634 ± 74 nM | binding [11]: no | KD [12]: 2440 ± 1030 nM | KD [13]: 150 ± 26 nM | KD [14]: 1170 ± 170 nM
SMILES: CC1(C)CC(Oc2ccc(-c3ccc(-c4cn[nH]c4)cc3O)nn2)CC(C)(C)N1
